For this assay, the target named is T1, recombinant integrin α4β7 (Homo sapiens, UniProt P13612+P26010, DEL724-798).
T1 construct: purchased R&D Systems 5397-A3-050
T1 sequence (P13612 34-970 limits assumed): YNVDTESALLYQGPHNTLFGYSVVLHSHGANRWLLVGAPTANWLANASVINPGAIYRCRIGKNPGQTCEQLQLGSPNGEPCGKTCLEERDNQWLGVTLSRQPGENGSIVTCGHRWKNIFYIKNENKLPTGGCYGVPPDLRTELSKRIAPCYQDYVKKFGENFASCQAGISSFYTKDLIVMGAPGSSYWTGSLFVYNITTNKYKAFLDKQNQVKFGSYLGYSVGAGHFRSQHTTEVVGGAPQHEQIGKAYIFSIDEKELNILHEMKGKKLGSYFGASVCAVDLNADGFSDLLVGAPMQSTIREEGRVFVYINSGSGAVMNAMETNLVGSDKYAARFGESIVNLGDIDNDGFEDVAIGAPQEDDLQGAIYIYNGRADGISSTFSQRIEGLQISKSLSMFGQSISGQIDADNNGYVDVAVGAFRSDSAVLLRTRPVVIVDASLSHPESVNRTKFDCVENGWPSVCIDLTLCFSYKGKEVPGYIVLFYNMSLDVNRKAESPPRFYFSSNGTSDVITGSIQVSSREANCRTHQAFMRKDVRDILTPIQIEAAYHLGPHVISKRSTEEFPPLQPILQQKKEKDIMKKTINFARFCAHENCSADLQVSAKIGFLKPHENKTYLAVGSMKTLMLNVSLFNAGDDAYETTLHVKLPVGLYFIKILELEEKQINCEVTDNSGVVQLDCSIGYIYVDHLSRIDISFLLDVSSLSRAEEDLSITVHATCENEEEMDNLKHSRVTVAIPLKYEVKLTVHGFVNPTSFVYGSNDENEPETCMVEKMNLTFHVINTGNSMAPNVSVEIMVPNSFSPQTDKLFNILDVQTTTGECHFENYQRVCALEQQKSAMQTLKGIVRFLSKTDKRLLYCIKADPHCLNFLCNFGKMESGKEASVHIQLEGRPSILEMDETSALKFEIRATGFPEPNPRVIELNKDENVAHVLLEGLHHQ
T1 sequence (P26010 20-723 limits assumed): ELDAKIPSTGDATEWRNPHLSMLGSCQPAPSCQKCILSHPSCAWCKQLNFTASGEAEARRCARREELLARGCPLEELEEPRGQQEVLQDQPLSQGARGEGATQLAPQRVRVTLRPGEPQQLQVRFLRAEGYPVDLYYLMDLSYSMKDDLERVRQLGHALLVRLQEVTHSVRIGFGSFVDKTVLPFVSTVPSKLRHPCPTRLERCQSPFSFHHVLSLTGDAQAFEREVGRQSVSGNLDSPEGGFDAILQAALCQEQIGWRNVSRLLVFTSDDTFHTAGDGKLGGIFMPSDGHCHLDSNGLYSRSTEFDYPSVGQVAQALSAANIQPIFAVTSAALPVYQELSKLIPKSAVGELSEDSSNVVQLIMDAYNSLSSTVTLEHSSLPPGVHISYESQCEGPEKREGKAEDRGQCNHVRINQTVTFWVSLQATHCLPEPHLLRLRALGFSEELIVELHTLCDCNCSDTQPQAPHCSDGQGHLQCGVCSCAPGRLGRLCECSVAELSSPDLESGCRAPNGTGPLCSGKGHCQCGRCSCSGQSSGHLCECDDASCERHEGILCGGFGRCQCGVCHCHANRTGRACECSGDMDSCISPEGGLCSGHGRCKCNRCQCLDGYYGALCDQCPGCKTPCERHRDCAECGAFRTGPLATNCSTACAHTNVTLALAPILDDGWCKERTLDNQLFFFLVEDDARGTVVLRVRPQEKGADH
In words: Integrin α4β7—MAdCAM-1 ELISA competition assay. Particulars: for ELISA Assay Ratio b1/b7: ratio of a4b1 to a4b7 ELISA IC50; for IC50: read-out: ELISA a4b7 Assay IC50. It is filed as binding. In general terms: In an ELISA, binding on a coated surface is turned into a signal by an enzyme label.

Consider 25 compounds from US11713338B2, “Cyclic peptides multimers targeting α-4-β-7 integrin” (priority 2016, dated 2023).

Usually IC50 stands for the concentration that inhibits the measured activity by half.

Experimental: Integrin α4β7—MAdCAM-1 ELISA Competition Assay
The plate was incubated at 40C overnight. […] The plate was then incubated for 1 hour at room temperature. The plate was washed three times with wash buffer (50 mM Tris, 100 mM NaCl, 1 mM MnCl2, 0.05% Tween). To each well, 50 μl of compound diluted in assay buffer was added by transfer from a compound serial dilution plate. […] The plate was incubated at room temperature with shaking (300 rpm) for 2 hours to reach binding equilibrium. […] The plate was incubated at room temperature for 1 hour under agitation.

`CC[C@H](C)[C@@H]1NC(=O)[C@H](CC(=O)O)NC(=O)[C@H](CC(C)C)NC(=O)C[C@@H](CCCCN)NC(=O)[C@H](Cc2ccccc2)NC(=O)[C@@H]2CCCN2[C@H](C(=O)NC(C)(C)C)[C@H](C)NC1=O` [Compound 220]: the “ELISA Assay Ratio b1/b7” value stood at 18.2 and the IC50 amounted to 96 nM.

For `CC(C)C[C@@H]1NC(=O)[C@H](Cc2ccc(-c3ccccc3)cc2)NC(=O)[C@@H]2CCCN2[C@H](C(=O)NC(C)(C)C)[C@H](C)NC(=O)[C@H]([C@@H](C)OCc2ccccc2)NC(=O)[C@H](CC(=O)O)NC1=O` [Compound 18], the IC50 came to 120 nM.

Regarding `CC(C)C[C@@H]1NC(=O)c2cccc(c2)CN(Cc2ccccc2)C(=O)[C@@H]2CCCN2[C@H](C(=O)NC(C)(C)C)[C@H](C)NC(=O)[C@H]([C@@H](C)O)NC(=O)[C@H](CC(=O)O)NC1=O` [Compound 357], the IC50 was determined as 102 nM.

`COc1ccc(-c2ccccc2C[C@@H]2NC(=O)[C@@H]3CCCN3[C@H](C(=O)NC(C)(C)C)[C@H](C)NC(=O)[C@H]([C@@H](C)O)NC(=O)[C@H](CC(=O)O)NC(=O)[C@H](CC(C)C)NC(=O)[C@H]3CCCCN3C2=O)cc1` [Compound 137]: the “ELISA Assay Ratio b1/b7” value is 7.8 and the IC50 is 33 nM.

For the compound `CC(C)C[C@@H]1NC(=O)[C@@H]2C[C@@H](O)CN2C(=O)[C@@H]2CCCN2[C@H](C(=O)NC(C)(C)C)[C@H](C)NC(=O)[C@H]([C@@H](C)O)NC(=O)[C@H](CC(=O)O)NC1=O` [Compound 63], the IC50 is 107 nM.

`CC(C)C[C@@H]1NC(=O)[C@H]2CCCCN2C(=O)[C@H](Cc2ccccc2-c2ccccc2)NC(=O)[C@@H]2CCCN2[C@H](C(=O)NC(C)(C)C)[C@H](C)NC(=O)[C@H]([C@@H](C)O)NC(=O)[C@H](CC(=O)O)NC1=O` [Compound 134]: the “ELISA Assay Ratio b1/b7” value is on record as 7.6 and the half-inhibitory concentration (IC50) was 23 nM.

As to `CC(C)C[C@@H]1NC(=O)C[C@H](CCCCN)NC(=O)[C@H](Cc2ccc(O)cc2)NC(=O)[C@@H]2CCCN2[C@H](C(=O)NC(C)(C)C)[C@H](C)NC(=O)[C@H]([C@@H](C)OCc2ccccc2)NC(=O)[C@H](CC(=O)O)NC1=O` [Compound 200], the “ELISA Assay Ratio b1/b7” value is listed as 2.6 and the IC50 amounted to 134 nM.

Regarding `CCCC[C@H]1NC(=O)[C@H](Cc2ccc(O)cc2)NC(=O)[C@@H]2CCCN2[C@H](C(=O)NC(C)(C)C)[C@H](C)NC(=O)[C@H]([C@@H](C)O)NC(=O)[C@H](CC(=O)O)NC(=O)[C@H](CC(C)C)NC1=O` [Compound 155], the IC50 worked out at 54 nM.

For the compound `CC(C)C[C@@H]1NC(=O)[C@@H](Cc2ccncc2)NC(=O)[C@@H]2CCCN2[C@H](C(=O)NC(C)(C)C)[C@H](C)NC(=O)[C@H]([C@@H](C)O)NC(=O)[C@H](CC(=O)O)NC1=O` [Compound 62], the “ELISA Assay Ratio b1/b7” value was 4.3 and the IC50 amounted to 27 nM.

Take `CC(C)C[C@@H]1NC(=O)C[C@H](CCCCN)NC(=O)[C@H](Cc2cccc(I)c2)NC(=O)[C@@H]2CCCN2[C@H](C(=O)NC(C)(C)C)[C@H](C)NC(=O)[C@H]([C@@H](C)O)NC(=O)[C@H](CC(=O)O)NC1=O` [Compound 255]: the IC50 was 43 nM.

Turning to `CC(C)C[C@@H]1NC(=O)CNC(=O)[C@H](Cc2ccc(CN)cc2)NC(=O)[C@@H]2CCCN2[C@H](C(=O)NC(C)(C)C)[C@H](C)NC(=O)[C@H]([C@@H](C)O)NC(=O)[C@H](CC(=O)O)NC1=O` [Compound 165], the “ELISA Assay Ratio b1/b7” value turned out to be 22.8 and the IC50 worked out at 128 nM.

Regarding `C[C@@H]1NC(=O)[C@H]([C@@H](C)O)NC(=O)[C@H](CC(=O)O)NC(=O)[C@H](CC(C)(C)C)NC(=O)c2ccc(-c3ccnc4ccccc34)c(c2)CNC(=O)[C@@H]2CCCN2[C@@H]1C(=O)NC(C)(C)C` [Compound 355], the IC50 was 48 nM.

`Cc1cccc(C)c1-c1ccccc1C[C@@H]1NC(=O)[C@@H]2CCCN2[C@H](C(=O)NC(C)(C)C)[C@H](C)NC(=O)[C@H]([C@@H](C)O)NC(=O)[C@H](CC(=O)O)NC(=O)[C@H](CC(C)C)NC(=O)C[C@H](CCCCN)NC1=O` [Compound 272]: the “ELISA Assay Ratio b1/b7” value is reported as 58.1 and the IC50 stood at 41 nM.

As for `CC(C)C[C@@H]1NC(=O)[C@H](Cc2csc(-c3cccnc3)n2)NC(=O)[C@@H]2CCCN2[C@H](C(=O)NC(C)(C)C)[C@H](C)NC(=O)[C@H]([C@@H](C)O)NC(=O)[C@H](CC(=O)O)NC1=O` [Compound 96], the IC50 amounted to 138 nM.

`CC(C)C[C@@H]1NC(=O)[C@H]2CCCN2C(=O)[C@H](Cc2cc(F)c(F)c(F)c2)NC(=O)[C@@H]2CCCN2[C@H](C(=O)NC(C)(C)C)[C@H](C)NC(=O)[C@H]([C@@H](C)O)NC(=O)[C@H](CC(=O)O)NC1=O` [Compound 128]: the “ELISA Assay Ratio b1/b7” value is 11.4 and the IC50 was 26 nM.

With `CC(C)C[C@@H]1NC(=O)C[C@H](CCCCN)NC(=O)[C@H](Cc2ccc(CN)cc2)NC(=O)[C@@H]2CCCN2[C@H](C(=O)NC(C)(C)C)[C@H](C)NC(=O)[C@H](C(C)C)NC(=O)[C@H](CC(=O)O)NC1=O` [Compound 254], the “ELISA Assay Ratio b1/b7” value worked out at 33.0 and the IC50 is 55 nM.

As to `CC(C)C[C@@H]1NC(=O)C[C@H](CCCCN)NC(=O)[C@H](Cc2ccccc2-c2cc(C(F)(F)F)ccc2C(F)(F)F)NC(=O)[C@@H]2CCCN2[C@H](C(=O)NC(C)(C)C)[C@H](C)NC(=O)[C@H]([C@@H](C)O)NC(=O)[C@H](CC(=O)O)NC1=O` [Compound 286], the IC50 came to 64 nM.

Turning to `CC(C)C[C@@H]1NC(=O)C[C@H](CCCCN)NC(=O)[C@H](Cc2ccccc2-c2cccnc2)NC(=O)[C@@H]2CCCN2[C@H](C(=O)NC(C)(C)C)[C@H](C)NC(=O)[C@H]([C@@H](C)O)NC(=O)[C@H](CC(=O)O)NC1=O` [Compound 292], the IC50 came out at 30 nM.

Consider `CC(C)C[C@@H]1NC(=O)c2ccc(Br)c(c2)CNC(=O)[C@H](Cc2ccc(O)cc2)NC(=O)[C@@H]2CCCN2[C@H](C(=O)NC(C)(C)C)[C@H](C)NC(=O)[C@H]([C@@H](C)O)NC(=O)[C@H](CC(=O)O)NC1=O` [Compound 336], for which the “ELISA Assay Ratio b1/b7” value stood at 5.6 and the IC50 was 162 nM.

On to `CC(C)C[C@@H]1NC(=O)C[C@H](CCCCN)NC(=O)C2(CCc3ccccc3C2)NC(=O)[C@@H]2CCCN2[C@H](C(=O)NC(C)(C)C)[C@H](C)NC(=O)[C@H]([C@@H](C)O)NC(=O)[C@H](CC(=O)O)NC1=O` (some centres unmarked) [Compound 282], for which the IC50 was found to be 119 nM.

On to `CC(C)C[C@@H]1NC(=O)CN(C)C(=O)[C@H](Cc2csc(-c3cccnc3)n2)NC(=O)[C@@H]2CCCN2[C@H](C(=O)NC(C)(C)C)[C@H](C)NC(=O)[C@H]([C@@H](C)O)NC(=O)[C@H](CC(=O)O)NC1=O` [Compound 181], for which the “ELISA Assay Ratio b1/b7” value is reported as 12.6.

Consider `CC(C)C[C@@H]1NC(=O)C[C@H](CCCCN)NC(=O)[C@H](Cc2ccccc2-c2ncccc2Br)NC(=O)[C@@H]2CCCN2[C@H](C(=O)NC(C)(C)C)[C@H](C)NC(=O)[C@H]([C@@H](C)O)NC(=O)[C@H](CC(=O)O)NC1=O` [Compound 294], for which the IC50 came to 45 nM.

Take `CC[C@H](C)[C@@H]1NC(=O)[C@H](CC(=O)O)NC(=O)[C@H](CC(C)C)NC(=O)[C@H](Cc2ccc(O)cc2)NC(=O)[C@@H]2CCCN2[C@H](C(=O)NC(C)(C)C)[C@H](C)NC1=O` [Compound 53]: the IC50 worked out at 182 nM.

With `CC(C)C[C@@H]1NC(=O)C[C@H](CCCCN)NC(=O)[C@H](Cc2ccc(-c3ccccc3OC(F)(F)F)cc2)NC(=O)[C@@H]2CCCN2[C@H](C(=O)NC(C)(C)C)[C@H](C)NC(=O)[C@H]([C@@H](C)O)NC(=O)[C@H](CC(=O)O)NC1=O` [Compound 262], the IC50 amounted to 80 nM.

In the case of `COc1ccccc1-c1cccc(C[C@@H]2NC(=O)[C@@H]3CCCN3[C@H](C(=O)NC(C)(C)C)[C@H](C)NC(=O)[C@H]([C@@H](C)O)NC(=O)[C@H](CC(=O)O)NC(=O)[C@H](CC(C)C)NC(=O)C[C@H](CCCCN)NC2=O)c1` [Compound 257], the IC50 came out at 58 nM.
